From patent US20250195478A1, “DUAL INHIBITORS OF VISTA AND PD-1 PATHWAYS” (Aurigene Oncology Limited, priority 2016, published 2025)

What was measured:
[1] = target: T1, Recombinant mouse PD-L1 (Mus musculus, UniProt Q9EP73); assay: Rescue of mouse splenocyte proliferation in the presence of recombinant PD-L1 (CFSE proliferation assay); format: cell-based; conditions: 100 nM compound; anti-CD3/CD28 stimulated mouse splenocytes + PD-L1; 72 h; stimulated splenocytes = 100%; read-out: PDL1 (rescue of proliferation @ 100 nM)
T1 construct: Fc (Fc chimera); purchased R&D Systems 1019-B7-100
Experimental: Example 1: Rescue of Mouse Splenocyte Proliferation in the Presence of Recombinant PD-L1/PD-L2
Recombinant mouse PD-L1 (rm-PDL-1, cat no: 1019-B7-100; R&D Systems) were used as the source of PD-L1.
Mouse splenocytes harvested from 6-8 weeks old C57 BL6 mice; RPMI 1640 (GIBCO, Cat #11875); DMEM with high glucose (GIBCO, Cat #D6429); Fetal Bovine Serum [Hyclone, Cat #SH30071.03]; Penicillin (10000unit/mL)-Streptomycin (10,000 μg/mL) Liquid (GIBCO, Cat #15140-122); MEM Sodium Pyruvate solution 100 mM (100×), Liquid (GIBCO, Cat #11360); Nonessential amino acid (GIBCO, Cat #11140); L-Glutamine (GIBCO, Cat #25030); Anti-CD3 antibody (eBiosciences-16-0032); Anti-CD28 antibody (eBiosciences-16-0281); ACK lysis buffer (1mL) (GIBCO, Cat #-A10492); Histopaque (density-1.083 gm/mL) (SIGMA 10831); Trypan blue solution (SIGMA-T8154); 2 mL Norm Ject Luer Lock syringe-(Sigma 2014-12); 40 μm nylon cell strainer (BD FALCON 35230); Hemacytometer (Bright line-SIGMA Z359629); FACS Buffer (PBS/0.1% BSA): Phosphate Buffered Saline (PBS) pH 7.2 (HiMedia TS1006) with 0.1% Bovine Serum Albumin (BSA) (SIGMA A7050) and sodium azide (SIGMA 08591); 5 mM stock solution of CFSE: CFSE stock solution was prepared by diluting lyophilized CFSE with 180 μL of Dimethyl sulfoxide (DMSO C2H6SO, SIGMA-D-5879) and aliquoted in to tubes for further use. Working concentrations were titrated from 10 μM to 1 μM. (eBioscience-650850-85); 0.05% Trypsin and 0.02% EDTA (SIGMA 59417C); 96-well format ELISA plates (Corning CLS3390); BD FACS caliber (E6016);
Recombinant mouse B7-H1/PDL1 Fc Chimera, (rm-PD-L1 cat no: 1019-B7-100).
Splenocytes harvested in a 50 mL falcon tube by mashing mouse spleen in a 40 μm cell strainer were further treated with 1 mL ACK lysis buffer for 5 min at room temperature.
After washing with 9 mL of RPMI complete media, cells were re-suspended in 3 mL of 1×PBS in a 15 mL tube. 3 mL of Histopaque was added carefully to the bottom of the tube without disturbing overlaying splenocyte suspension. After centrifuging at 800×g for 20 min at room temperature, the opaque layer of splenocytes was collected carefully without disturbing/mixing the layers. Splenocytes were washed twice with cold 1×PBS followed by total cell counting using Trypan Blue exclusion method and used further for cell based assays.
Splenocytes were cultured in RPMI complete media (RPMI +10% fetal bovine serum+1 mM sodium pyruvate+10,000units/mL penicillin and 10,000 μg/mL streptomycin) and maintained in a CO2 incubator with 5% CO2 at 37° C.
CFSE is a dye that passively diffuses into cells and binds to intracellular proteins. 1×10^6 cells/mL of harvested splenocytes were treated with 5 μM of CFSE in pre-warmed 1×PBS/0.1% BSA solution for 10 min at 37° C. Excess CFSE was quenched using 5 volumes of ice-cold culture media to the cells and incubated on ice for 5 min. CFSE labelled splenocytes were further given three washes with ice cold complete RPMI media. CFSE labelled 1×10^5 splenocytes added to wells containing either MDA-MB231 cells (1×10^5 cells cultured in high glucose DMEM medium) or recombinant […] PDL-1 (100 ng/mL) and test compounds. Splenocytes were stimulated with anti-mouse CD3 and anti-mouse CD28 antibody (lug/mL each), and the culture was further incubated for 72 h at 37° C. with 5% CO2. Cells were harvested and washed thrice with ice cold FACS buffer and % proliferation was analysed by flow cytometry with 488 nm excitation and 521 nm emission filters.
Percent splenocyte proliferation was analysed using cell quest FACS program and percent rescue of splenocyte proliferation by compound was estimated after deduction of % background proliferation value and normalising to % stimulated splenocyte proliferation (positive control) as 100%.
Stimulated splenocytes: Splenocytes+anti-CD3/CD28 stimulation
Background proliferation: Splenocytes+anti-CD3/CD28+PD-L1
Compound proliferation: Splenocytes+anti-CD3/CD28+PD-L1+Compound […]

[2] = target: T2, recombinant human VISTA (Homo sapiens, UniProt Q9H7M9); assay: Human PBMC IFN-γ release assay in the presence of recombinant human VISTA; format: cell-based; conditions: 100 nM compound, plate-coated VISTA + anti-CD3, anti-CD28, 72 h, ELISA
T2 construct: Fc (Fc chimera); purchased R&D Systems 7126-B7
Experimental: Example 2: Rescue of Mouse Splenocyte Proliferation in the Presence of Recombinant VISTA
Vehicle: Milli Q water; RPMI 1640 (GIBCO, Cat #11875); Fetal Bovine Serum [Hyclone, Cat #SH30071.03]; Penicilin (10000 unit/ml)-Streptomycin (10,000 μg/ml) liquid (GIBCO, Cat #15140-122); MEM Sodium Pyruvate solution 100 mM (100×), Liquid (GIBCO, Cat #11360); Nonessential amino acid (GIBCO, Cat #11140); L-Glutamine (GIBCO, Cat #25030); Recombinant human VISTA (rhGi24 VISTA/B7-H5 Fc chimera (R&D systems, cat no: 7126-B7); Anti-h/m Gi24/VISTA/B7-H5 purified mouse monoclonal IgG2B (R&D systems, cat no: MAB7126); Mouse IgG2B isotype control (R&D Systems cat no: MAB 004); Anti human-CD3 antibody (eBiosciences-16-0039); Anti human-CD28 antibody (eBiosciences-16-0289); Histopaque (density-1.077 gm/ml) (SIGMA 1077); Trypan Blue solution (SIGMA-T8154); Hemacytometer (Bright line-SIGMA Z359629); FACS Buffer containing Phosphate Buffered Saline (PBS) pH 7.2; (HiMedia TS1006) with 0.1% Bovine Serum Albumin (BSA) (SIGMA A7050) and sodium azide (SIGMA 08591); 96-well format ELISA plates (Corning 3599); 96-well format ELISA plates (Corning 3361); BD FACS caliber (E6016); Centrifuge (Eppendorf 5810 R); Human IFN-γ Duo set ELISA kit (R&D Systems; cat no: DY-285).
96-well cell culture plates were pre-coated with recombinant human VISTA (2.5 μg/ml) and anti-human CD3 (2.5 μg/ml), and stored at 4° C. overnight. Anti-human VISTA and isotype control antibodies were either coated along with the VISTA or incubated for 30 min next day before addition of cells. On the next day, plates were washed with 1×PBS and then incubated with test compounds for 30 min. Isolated PBMC (0.1×10^6 cells/well) and anti-human CD28 antibodies (lug/ml) were added to the wells. The culture was further incubated for 72 h at 37° C. with 5% CO2. After 72 h of incubation the cell culture supernatants were collected after brief centrifugation at 200 g×5 min at 4° C. and processed for human IFN-γ measurement by ELISA following manufacturer's protocol (R&D Systems; DY-285).
In brief, 96-well ELISA plates were coated with 100 μl/well of capture antibody in coating buffer and incubated overnight at 4° C. Plates were washed five times with wash buffer and further blocked with 200 μl of 1× assay diluents for 1 hr at RT. Following wash step, 100 μl of cell culture supernatants were added to wells and further incubated for 2 hr at RT. Appropriate standards were also included. After wash step, plate was incubated for one hour with 100 μl/well of detection antibody. The wash step was repeated and the plate was incubated for 30 min with 100 μl/well of Avidin-HRP. The plate was washed four times with wash buffer and subsequently incubated for 15 min with 100 μl/well of substrate solution. 50 μl of stop solution was added to each well and the plate was read at 450 nm using Gen5 ver 2.05. Delta OD values were used for calculating the concentrations. The absorbance values were plotted against the standards and the concentration of IFN-γ was determined using GraphPad Prism software. Each experimental condition was carried out in triplicates.
The percent rescue of IFN-γ release of the selected compounds of present invention are set forth below wherein “A” refers to compounds having more than 70% rescue of IFN-γ release, “B” refers to compounds having rescue of IFN-γ release ranges from 50% to 69.9% and “C” refers to compounds having less than 50% rescue of IFN-γ release.

T2 sequence (Q9H7M9 with tags, fused parts or gaps limits assumed): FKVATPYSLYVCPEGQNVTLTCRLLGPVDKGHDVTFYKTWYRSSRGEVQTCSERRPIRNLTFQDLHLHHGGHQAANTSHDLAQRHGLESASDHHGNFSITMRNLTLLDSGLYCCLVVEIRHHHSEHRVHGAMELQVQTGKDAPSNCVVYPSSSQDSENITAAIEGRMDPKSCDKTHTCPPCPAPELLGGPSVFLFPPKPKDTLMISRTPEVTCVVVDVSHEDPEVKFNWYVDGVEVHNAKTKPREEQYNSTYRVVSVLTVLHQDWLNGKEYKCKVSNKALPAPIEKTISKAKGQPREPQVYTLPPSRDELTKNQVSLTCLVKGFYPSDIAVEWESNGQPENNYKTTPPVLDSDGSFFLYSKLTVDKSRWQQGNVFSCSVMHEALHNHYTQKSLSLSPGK
T1 sequence (Q9EP73 19-238 limits assumed): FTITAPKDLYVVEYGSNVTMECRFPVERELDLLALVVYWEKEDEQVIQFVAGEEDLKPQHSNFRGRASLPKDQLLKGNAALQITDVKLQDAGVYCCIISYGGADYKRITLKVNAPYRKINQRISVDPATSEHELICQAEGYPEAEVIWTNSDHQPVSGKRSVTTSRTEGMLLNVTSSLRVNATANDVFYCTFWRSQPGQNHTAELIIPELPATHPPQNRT

Row | SMILES | activation at 0.1 µM [1] | VISTA (rescue of IFN γ release @ 100 nM) [2]
1 | CC(O)[C@H](NC(=O)N[C@@H](CC(N)=O)c1nc([C@@H](N)CO)no1)C(=O)O (stereo partly shown) [Compound 1] | 97% | A (more than 70% rescue of IFN-γ release)
2 | CC(O)[C@H](NC(=O)N[C@@H](CC(N)=O)c1nc([C@@H](N)C(C)O)no1)C(=O)O (stereo partly shown) [Compound 2] | 75% | A (more than 70% rescue of IFN-γ release)
3 | N[C@@H](CO)c1noc([C@H](CC(=O)O)NC(=O)N[C@@H](CO)C(=O)O)n1 [Compound 3] | 91% | C (less than 50% rescue of IFN-γ release)
4 | NCCCC[C@H](NC(=O)N[C@@H](CC(N)=O)c1nc([C@@H](N)CO)no1)C(=O)O [Compound 4] |  | B (rescue of IFN-γ release ranges from 50% to 69.9%)
5 | CC(O)[C@H](NC(=O)N[C@@H](CC(N)=O)c1nc([C@@H](N)Cc2ccc(O)cc2)no1)C(=O)O (stereo partly shown) [Compound 5] |  | A (more than 70% rescue of IFN-γ release)
6 | CN[C@@H](CO)c1noc([C@H](CC(N)=O)NC(=O)N[C@H](C(=O)O)C(C)O)n1 (stereo partly shown) [Compound 6] | 63% | C (less than 50% rescue of IFN-γ release)
7 | CC(O)[C@H](NC(=O)N[C@@H](CC(N)=O)c1nc([C@@H](N)CCCCN)no1)C(=O)O (stereo partly shown) [Compound 7] | 96% | C (less than 50% rescue of IFN-γ release)
8 | CC(O)[C@H](NC(=O)N[C@@H](Cc1cc2ccccc2[nH]1)c1nc([C@@H](N)CO)no1)C(=O)O (stereo partly shown) [Compound 8] | 60% | B (rescue of IFN-γ release ranges from 50% to 69.9%)
9 | CC(O)[C@H](NC(=O)N[C@H](c1nc([C@@H](N)CO)no1)C(C)C)C(=O)O (stereo partly shown) [Compound 9] |  | C (less than 50% rescue of IFN-γ release)
10 | CCCCCCNC(=O)C[C@H](NC(=O)N[C@H](C(=O)O)C(C)O)c1nc([C@@H](N)CO)no1 (stereo partly shown) [Compound 10] |  | C (less than 50% rescue of IFN-γ release)
11 | CCC(C)[C@H](NC(=O)N[C@@H](CCC(=O)O)C(=O)O)c1nc([C@@H](N)CCC(N)=O)no1 (stereo partly shown) [Compound 11] |  | C (less than 50% rescue of IFN-γ release)
12 | NCCCC[C@H](N)c1noc([C@H](CCC(N)=O)NC(=O)N[C@@H](CO)C(=O)O)n1 [Compound 12] |  | B (rescue of IFN-γ release ranges from 50% to 69.9%)
13 | N[C@@H](CO)c1noc([C@H](CO)NC(=O)N[C@@H](CO)C(=O)O)n1 [Compound 13] |  | B (rescue of IFN-γ release ranges from 50% to 69.9%)
14 | N=C(N)NCCC[C@H](N)c1noc([C@H](CC(=O)O)NC(=O)N[C@@H](CO)C(=O)O)n1 [Compound 16] |  | B (rescue of IFN-γ release ranges from 50% to 69.9%)
15 | CC(=O)NCCCC[C@@H](NC(=O)N[C@H](C(=O)O)C(C)O)c1nc([C@@H](N)CO)no1 (stereo partly shown) [Compound 17] |  | C (less than 50% rescue of IFN-γ release)
16 | CCCCCCNC(=O)CC[C@H](NC(=O)N[C@H](C(=O)O)C(C)O)c1nc([C@@H](N)CO)no1 (stereo partly shown) [Compound 18] |  | C (less than 50% rescue of IFN-γ release)
17 | CC(O)[C@@H](NC(=O)N[C@@H](CC(N)=O)c1nc([C@@H](N)CO)no1)C(=O)O (stereo partly shown) [Compound 20] |  | A (more than 70% rescue of IFN-γ release)
18 | CC(O)[C@H](NC(=O)N[C@@H](CC(N)=O)c1nc(C2(N)CCCC2)no1)C(=O)O (stereo partly shown) [Compound 25] |  | C (less than 50% rescue of IFN-γ release)
19 | CCC(C)[C@H](NC(=O)N[C@H](C(=O)O)[C@@H](C)O)c1nc([C@@H](N)CO)no1 (stereo partly shown) [Compound 27] |  | A (more than 70% rescue of IFN-γ release)
